# Measurements published in BindingDB's records for patent US20250388593 (Mitsubishi Tanabe Pharma, 2025).
# Target: T1, Protein cereblon [318-426] (UniProt Q96SW2)
# T1 construct: 318-426
# Experiment: Measurement of Molecular Interactions Using Surface Plasmon Resonance (SPR)
# Description: The instrument used was the Biacore T200 (manufactured by Cytiva). […] The sensor chip used was Sensor Chip SA (manufactured by Cytiva). The CRBN truncate was immobilized using the affinity between SA (streptavidin) on the sensor chip and the Avi-tag. The running buffer was a mixture of 10 mM HEPES pH 7.5, 150 mM NaCl, 1 mM TCEP, 0.005% Tween 20, and 2% DMSO. […] Contact time and dissociation time were set at 60 seconds and 120 seconds, respectively.
# T1 sequence (Q96SW2 318-426): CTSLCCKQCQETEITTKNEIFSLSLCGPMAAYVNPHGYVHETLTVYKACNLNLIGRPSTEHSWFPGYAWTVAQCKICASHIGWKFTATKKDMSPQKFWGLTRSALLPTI
row,Kd,Structure (SMILES)
1,in the range around 75 µM,"CC(C)(C)OC(=O)C1=CC(C2CCCC(=O)NC2=O)CC=C1 (stereo unspecified) [US20250388593, Example 60]"
2,> 100 µM,"O=C1CCCC(C2=CC([N+](=O)[O-])CC=C2)C(=O)N1 (stereo unspecified) [US20250388593, Example 62]"
3,> 100 µM,"O=C1CCCC(c2cc([N+](=O)[O-])ccc2Cl)C(=O)N1 (stereo unspecified) [US20250388593, Example 63]"
4,> 100 µM,"COC(=O)C(CCCCNC(=O)OCc1ccccc1)Oc1ccccc1[N+](=O)[O-] (stereo unspecified) [US20250388593, Example 66-1]"
5,> 100 µM,"CC(C)(C)OC(=O)N1CCN(C(=O)CN2CCC3(CCCC(=O)NC3=O)CC2=O)CC1 (stereo unspecified) [US20250388593, Example 98]"
6,> 100 µM,"CC(C)(C)OC(=O)CN1CCC2(CCCC(=O)NC2=O)CC1=O (stereo unspecified) [US20250388593, Example 107]"
7,< 50 µM,"CC(=O)Nc1ccc2nc(N3CCCC(=O)NC3=O)sc2c1 [US20250388593, Example 119]"
8,< 50 µM,"CC(C)(C)OC(=O)CCc1nn(C2CCCC(=O)NC2=O)c2ccccc12 (stereo unspecified) [US20250388593, Example 137]"
9,> 100 µM,"Cn1c(=O)n(C2CCCC(=O)NC2=O)c2cccc(CCCCCCCC(=O)OC(C)(C)C)c21 (stereo unspecified) [US20250388593, Example 207]"
10,< 50 µM,"Cn1c(=O)n(C2CCCC(=O)NC2=O)c2cccc(CCC(=O)OC(C)(C)C)c21 (stereo unspecified) [US20250388593, Example 213]"
11,> 100 µM,"Cn1c(=O)n(C2CCCC(=O)NC2=O)c2ccc(C#CCCCCCC(=O)OC(C)(C)C)cc21 (stereo unspecified) [US20250388593, Example 215]"
12,> 100 µM,"Cn1c(=O)n(C2CCCC(=O)NC2=O)c2ccc(CCCCCCCC(=O)OC(C)(C)C)cc21 (stereo unspecified) [US20250388593, Example 216]"
13,< 50 µM,"Cn1c(=O)n(C2CCCC(=O)NC2=O)c2ccc(CCCCC(=O)OC(C)(C)C)cc21 (stereo unspecified) [US20250388593, Example 217]"
14,> 100 µM,"O=C1CCCC(N2C(=O)OCC3=C2C=CC([N+](=O)[O-])C3)C(=O)N1 (stereo unspecified) [US20250388593, Example 274]"
15,> 100 µM,"CC(C)(C)OC(=O)N1CCC(c2ccc(OC3CCCCNC3=O)cc2)CC1 (stereo unspecified) [US20250388593, Example 276]"
16,> 100 µM,"CN(C1CCCC(=O)NC1=O)S(=O)(=O)c1ccc(CCCCC(=O)OC(C)(C)C)cc1 (stereo unspecified) [US20250388593, Example 279]"
17,> 100 µM,"Cn1nc(N2CC=CC(=O)NC2=O)c2ccc(C3CCN(C(=O)OC(C)(C)C)CC3)cc21 [US20250388593, Example 282]"
18,> 100 µM,"CC(C)(C)OC(=O)CCCCCNc1cccc(C2CCCC(=O)NC2=O)c1 (stereo unspecified) [US20250388593, Example 298]"
19,> 100 µM,"CC(C)(C)OC(=O)CCCCCNc1ccc(N2CCC3(CCCC(=O)NC3=O)CC2=O)cc1 (stereo unspecified) [US20250388593, Example 301]"
20,> 100 µM,"CC(C)(C)OC(=O)CCCCCNc1ccc(N2CCC(N3CCCC(=O)NC3=O)C2=O)cc1 (stereo unspecified) [US20250388593, Example 302]"
21,> 100 µM,"CC(C)(C)OC(=O)NCCCCCCCNc1ccc(N2CCC3(CCCC(=O)NC3=O)CC2=O)cc1 (stereo unspecified) [US20250388593, Example 304]"
